From ChEMBL document CHEMBL5724914, “Linking interpersonal differences in gut microbiota composition and drug biotransformation activity” (2024)

How the values were obtained:
[1] = (§1) The drug is tested on Z-007 corresponding to rat gut metagenome with ENA study accession number: PRJEB37062 and ENA sample accession number: ERS12561807 for biotransformation under anaerobic condition. The drug concentrations were measured over 9 timepoints collected between 0 and 24 hours of incubation by liquid-chromatography-coupled mass spectrometry (LC–MS); conditions: 2 µM
[2] = human gut metagenome, 24 h, 2 µM
[3] = human gut metagenome, 24 h, 2 µM; remark: listed apart in the source
[4] = human gut metagenome, 24 h, 2 µM; remark: listed apart in the source
[5] = human gut metagenome, 24 h, 2 µM; remark: listed apart in the source
[6] = as §1, with “on WLS-310” for “on Z-007”, “to human” for “to rat”, “number: ERS12561785” for “number: ERS12561807”; conditions: 2 µM
[7] = human gut metagenome, 24 h, 2 µM; remark: listed apart in the source
[8] = as §1, with “Z-021” for “Z-007”, “to” for “to rat gut”, “ERS12561820” for “ERS12561807”; conditions: 2 µM
[9] = as §1, with “on WLS-006” for “on Z-007”, “to human” for “to rat”, “number: ERS12561741” for “number: ERS12561807”; conditions: 2 µM
[10] = as §1, with “on WLS-350” for “on Z-007”, “to human” for “to rat”, “number: ERS12561789” for “number: ERS12561807”; conditions: 2 µM
[11] = as §1, with “on Z-003” for “on Z-007”, “to pig” for “to rat”, “number: ERS12561803” for “number: ERS12561807”; conditions: 2 µM
[12] = as §1, with “on Z-024” for “on Z-007”, “to pig” for “to rat”, “number: ERS12561823” for “number: ERS12561807”; conditions: 2 µM
[13] = as §1, with “on Z-025” for “on Z-007”, “to rabbit” for “to rat”, “number: ERS12561824” for “number: ERS12561807”; conditions: 2 µM
[14] = human gut metagenome, 24 h, 2 µM; remark: listed apart in the source
[15] = human gut metagenome, 24 h, 2 µM; remark: listed apart in the source
[16] = as §1, with “on WLS-220” for “on Z-007”, “to human” for “to rat”, “number: ERS12561769” for “number: ERS12561807”; conditions: 2 µM
[17] = human gut metagenome, 24 h, 2 µM; remark: listed apart in the source
[18] = human gut metagenome, 24 h, 2 µM; remark: listed apart in the source
[19] = as §1, with “on Z-001” for “on Z-007”, “to mouse” for “to rat”, “number: ERS12561801” for “number: ERS12561807”; conditions: 2 µM
[20] = as §1, with “on Z-018” for “on Z-007”, “to pig” for “to rat”, “number: ERS12561817” for “number: ERS12561807”; conditions: 2 µM
Further: call rule not given here.

Br.COc1ccc2c(c1)[C@]13CCCC[C@@H]1[C@H](C2)N(C)CC3.O [DEXTROMETHORPHAN HYDROBROMIDE]
Bacterial Biotransformation [1]: Compound NOT metabolized
Bacterial Biotransformation [2]: Compound metabolized
Bacterial Biotransformation [3]: Compound NOT metabolized
Bacterial Biotransformation [4]: Compound NOT metabolized
Bacterial Biotransformation [5]: Compound metabolized
Bacterial Biotransformation [6]: Compound metabolized
Bacterial Biotransformation [7]: Compound NOT metabolized
Bacterial Biotransformation [8]: Compound metabolized
Bacterial Biotransformation [9]: Compound metabolized
Bacterial Biotransformation [10]: Compound metabolized
Bacterial Biotransformation [11]: Compound metabolized
Bacterial Biotransformation [12]: Compound metabolized
Bacterial Biotransformation [13]: Compound metabolized
Bacterial Biotransformation [14]: Compound metabolized
Bacterial Biotransformation [15]: Compound NOT metabolized
Bacterial Biotransformation [16]: Compound metabolized
Bacterial Biotransformation [17]: Compound metabolized
Bacterial Biotransformation [18]: Compound metabolized
Bacterial Biotransformation [19]: Compound NOT metabolized
Bacterial Biotransformation [20]: Compound metabolized

CCN(CC)CCOC(=O)C1(C2CCCCC2)CCCCC1 [DICYCLOMINE]
Bacterial Biotransformation [1]: Compound NOT metabolized
Bacterial Biotransformation [2]: Compound metabolized
Bacterial Biotransformation [3]: Compound metabolized
Bacterial Biotransformation [4]: Compound NOT metabolized
Bacterial Biotransformation [5]: Compound metabolized
Bacterial Biotransformation [6]: Compound metabolized
Bacterial Biotransformation [7]: Compound NOT metabolized
Bacterial Biotransformation [8]: Compound NOT metabolized
Bacterial Biotransformation [9]: Compound metabolized
Bacterial Biotransformation [10]: Compound NOT metabolized
Bacterial Biotransformation [11]: Compound NOT metabolized
Bacterial Biotransformation [12]: Compound metabolized
Bacterial Biotransformation [13]: Compound NOT metabolized
Bacterial Biotransformation [14]: Compound metabolized
Bacterial Biotransformation [15]: Compound metabolized
Bacterial Biotransformation [16]: Compound NOT metabolized
Bacterial Biotransformation [17]: Compound metabolized
Bacterial Biotransformation [18]: Compound NOT metabolized
Bacterial Biotransformation [19]: Compound NOT metabolized
Bacterial Biotransformation [20]: Compound NOT metabolized

COc1ccc([C@@H]2Sc3ccccc3N(CCN(C)C)C(=O)[C@@H]2OC(C)=O)cc1 [DILTIAZEM]
Bacterial Biotransformation [1]: Compound NOT metabolized
Bacterial Biotransformation [2]: Compound metabolized
Bacterial Biotransformation [3]: Compound metabolized
Bacterial Biotransformation [4]: Compound metabolized
Bacterial Biotransformation [5]: Compound metabolized
Bacterial Biotransformation [6]: Compound metabolized
Bacterial Biotransformation [7]: Compound NOT metabolized
Bacterial Biotransformation [8]: Compound NOT metabolized
Bacterial Biotransformation [9]: Compound metabolized
Bacterial Biotransformation [10]: Compound metabolized
Bacterial Biotransformation [11]: Compound metabolized
Bacterial Biotransformation [12]: Compound NOT metabolized
Bacterial Biotransformation [13]: Compound NOT metabolized
Bacterial Biotransformation [14]: Compound metabolized
Bacterial Biotransformation [15]: Compound NOT metabolized
Bacterial Biotransformation [16]: Compound metabolized
Bacterial Biotransformation [17]: Compound NOT metabolized
Bacterial Biotransformation [18]: Compound metabolized
Bacterial Biotransformation [19]: Compound metabolized
Bacterial Biotransformation [20]: Compound metabolized

OCCN(CCO)c1nc(N2CCCCC2)c2nc(N(CCO)CCO)nc(N3CCCCC3)c2n1 [DIPYRIDAMOLE]
Bacterial Biotransformation [1]: Compound NOT metabolized
Bacterial Biotransformation [2]: Compound metabolized
Bacterial Biotransformation [3]: Compound metabolized
Bacterial Biotransformation [4]: Compound metabolized
Bacterial Biotransformation [5]: Compound metabolized
Bacterial Biotransformation [6]: Compound metabolized
Bacterial Biotransformation [7]: Compound NOT metabolized
Bacterial Biotransformation [8]: Compound metabolized
Bacterial Biotransformation [9]: Compound NOT metabolized
Bacterial Biotransformation [10]: Compound metabolized
Bacterial Biotransformation [11]: Compound metabolized
Bacterial Biotransformation [12]: Compound metabolized
Bacterial Biotransformation [13]: Compound NOT metabolized
Bacterial Biotransformation [14]: Compound metabolized
Bacterial Biotransformation [15]: Compound NOT metabolized
Bacterial Biotransformation [16]: Compound metabolized
Bacterial Biotransformation [17]: Compound metabolized
Bacterial Biotransformation [18]: Compound metabolized
Bacterial Biotransformation [19]: Compound NOT metabolized
Bacterial Biotransformation [20]: Compound metabolized
